Laboratory results published in ChEMBL document CHEMBL4229386, “Benzopyrroloxazines containing a bridgehead nitrogen atom as promising scaffolds for the achievement of biologically active agents” (Eur J Med Chem, 2018).
≈ marks a conversion by molar mass, not a printed value.

Columns and labels:
Acetylcholinesterase = biological target: T1, Acetylcholinesterase (Bos taurus, UniProt P23795); assay: Inhibition of bovine AChE using ACH iodide as substrate preincubated for 60 mins followed by substrate addition and measured after 1 hrs by spectrophotometeric analysis
T1 sequence (P23795 whole entry): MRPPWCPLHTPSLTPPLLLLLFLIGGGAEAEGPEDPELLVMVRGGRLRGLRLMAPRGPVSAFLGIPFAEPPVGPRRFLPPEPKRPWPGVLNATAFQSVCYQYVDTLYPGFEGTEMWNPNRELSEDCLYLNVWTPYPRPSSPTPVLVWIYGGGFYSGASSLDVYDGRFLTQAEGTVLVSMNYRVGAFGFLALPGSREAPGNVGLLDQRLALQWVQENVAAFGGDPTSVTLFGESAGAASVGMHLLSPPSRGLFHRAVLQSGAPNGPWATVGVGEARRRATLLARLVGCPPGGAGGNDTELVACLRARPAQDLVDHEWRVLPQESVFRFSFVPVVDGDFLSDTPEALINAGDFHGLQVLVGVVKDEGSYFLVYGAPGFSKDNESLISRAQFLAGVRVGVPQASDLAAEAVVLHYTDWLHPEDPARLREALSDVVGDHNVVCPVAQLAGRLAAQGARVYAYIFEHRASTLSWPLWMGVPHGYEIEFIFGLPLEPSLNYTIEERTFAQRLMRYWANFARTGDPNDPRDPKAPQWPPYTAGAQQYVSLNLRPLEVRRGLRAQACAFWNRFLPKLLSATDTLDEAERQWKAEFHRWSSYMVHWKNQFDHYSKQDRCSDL

Rattus norvegicus = organism: Rattus norvegicus; assay: Analgesic activity in rat assessed as inhibition of acetic acid-induced writhing; format: functional
Hepatitis C virus = assay: Antiviral activity against HCV replicon after 3 days by RT-PCR analysis; format: functional, organism-based, Hepacivirus hominis; conditions: 72 h
Escherichia coli = assay: Antimicrobial activity against Escherichia coli; format: functional
Staphylococcus aureus = assay: Antimicrobial activity against Staphylococcus aureus; format: functional
[1] = biological target: T2, RNA-directed RNA polymerase (Hepacivirus hominis, UniProt O39930); assay: Inhibition of HCV genotype 1b NS5B RNA dependent RNA polymerase expressed in Escherichia coli BL21 (DE3) using biotinylated oligo-dT12 primer as substrate after 60 mins; parameters: species or system Hepatitis C virus subtype 1b
[2] = biological target: Sodium channel protein type 9 subunit alpha (Rattus norvegicus, UniProt O08562); assay: Inhibition of Nav1.7 in rat dorsal root ganglions at -60 mV holding potential by patch clamp assay
[3] = biological target: T2, RNA-directed RNA polymerase; assay: Inhibition of HCV NS5B RNA dependent RNA polymerase
[4] = biological target: Methionine aminopeptidase 2 (Homo sapiens, UniProt P50579); assay: Inhibition of human recombinant MetAP2 expressed in Sf9 insect cells using MAS as substrate after 30 mins by fluorometeric analysis
Staphylococcus = assay: Antimicrobial activity against Staphylococcus; format: functional
[5] = Inhibition of [33P]-ATP binding to Escherichia coli NR2 after 15 mins by liquid scintillation analysis

T2 sequence (O39930 whole entry): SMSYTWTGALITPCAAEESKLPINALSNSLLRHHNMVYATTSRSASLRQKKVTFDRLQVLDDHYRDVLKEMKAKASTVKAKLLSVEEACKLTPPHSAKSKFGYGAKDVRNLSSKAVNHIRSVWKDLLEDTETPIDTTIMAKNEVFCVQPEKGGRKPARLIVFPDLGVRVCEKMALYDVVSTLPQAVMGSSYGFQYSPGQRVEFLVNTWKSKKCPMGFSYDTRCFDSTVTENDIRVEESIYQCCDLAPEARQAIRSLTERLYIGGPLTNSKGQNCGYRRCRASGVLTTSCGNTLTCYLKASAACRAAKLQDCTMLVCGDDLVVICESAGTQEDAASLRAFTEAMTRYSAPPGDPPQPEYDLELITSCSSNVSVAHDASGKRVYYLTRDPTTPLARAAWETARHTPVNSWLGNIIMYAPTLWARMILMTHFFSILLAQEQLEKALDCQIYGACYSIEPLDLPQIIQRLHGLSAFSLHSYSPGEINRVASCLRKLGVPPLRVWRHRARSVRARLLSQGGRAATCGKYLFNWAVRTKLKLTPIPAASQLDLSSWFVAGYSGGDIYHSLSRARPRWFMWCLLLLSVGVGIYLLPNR
Methionine aminopeptidase 2, sequence (P50579 whole entry): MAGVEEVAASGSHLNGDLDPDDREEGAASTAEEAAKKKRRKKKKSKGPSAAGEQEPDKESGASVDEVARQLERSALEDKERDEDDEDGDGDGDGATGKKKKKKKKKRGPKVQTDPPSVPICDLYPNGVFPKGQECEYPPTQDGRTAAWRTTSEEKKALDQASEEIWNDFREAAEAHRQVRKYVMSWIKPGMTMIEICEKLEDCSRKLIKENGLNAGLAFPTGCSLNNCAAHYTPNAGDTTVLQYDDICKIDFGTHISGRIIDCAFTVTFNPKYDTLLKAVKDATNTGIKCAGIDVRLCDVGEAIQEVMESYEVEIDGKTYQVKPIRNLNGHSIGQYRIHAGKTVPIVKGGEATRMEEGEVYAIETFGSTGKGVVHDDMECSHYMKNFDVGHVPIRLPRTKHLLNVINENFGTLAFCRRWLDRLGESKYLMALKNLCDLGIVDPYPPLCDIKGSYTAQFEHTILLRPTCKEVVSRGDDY
Sodium channel protein type 9 subunit alpha, sequence (O08562 whole entry): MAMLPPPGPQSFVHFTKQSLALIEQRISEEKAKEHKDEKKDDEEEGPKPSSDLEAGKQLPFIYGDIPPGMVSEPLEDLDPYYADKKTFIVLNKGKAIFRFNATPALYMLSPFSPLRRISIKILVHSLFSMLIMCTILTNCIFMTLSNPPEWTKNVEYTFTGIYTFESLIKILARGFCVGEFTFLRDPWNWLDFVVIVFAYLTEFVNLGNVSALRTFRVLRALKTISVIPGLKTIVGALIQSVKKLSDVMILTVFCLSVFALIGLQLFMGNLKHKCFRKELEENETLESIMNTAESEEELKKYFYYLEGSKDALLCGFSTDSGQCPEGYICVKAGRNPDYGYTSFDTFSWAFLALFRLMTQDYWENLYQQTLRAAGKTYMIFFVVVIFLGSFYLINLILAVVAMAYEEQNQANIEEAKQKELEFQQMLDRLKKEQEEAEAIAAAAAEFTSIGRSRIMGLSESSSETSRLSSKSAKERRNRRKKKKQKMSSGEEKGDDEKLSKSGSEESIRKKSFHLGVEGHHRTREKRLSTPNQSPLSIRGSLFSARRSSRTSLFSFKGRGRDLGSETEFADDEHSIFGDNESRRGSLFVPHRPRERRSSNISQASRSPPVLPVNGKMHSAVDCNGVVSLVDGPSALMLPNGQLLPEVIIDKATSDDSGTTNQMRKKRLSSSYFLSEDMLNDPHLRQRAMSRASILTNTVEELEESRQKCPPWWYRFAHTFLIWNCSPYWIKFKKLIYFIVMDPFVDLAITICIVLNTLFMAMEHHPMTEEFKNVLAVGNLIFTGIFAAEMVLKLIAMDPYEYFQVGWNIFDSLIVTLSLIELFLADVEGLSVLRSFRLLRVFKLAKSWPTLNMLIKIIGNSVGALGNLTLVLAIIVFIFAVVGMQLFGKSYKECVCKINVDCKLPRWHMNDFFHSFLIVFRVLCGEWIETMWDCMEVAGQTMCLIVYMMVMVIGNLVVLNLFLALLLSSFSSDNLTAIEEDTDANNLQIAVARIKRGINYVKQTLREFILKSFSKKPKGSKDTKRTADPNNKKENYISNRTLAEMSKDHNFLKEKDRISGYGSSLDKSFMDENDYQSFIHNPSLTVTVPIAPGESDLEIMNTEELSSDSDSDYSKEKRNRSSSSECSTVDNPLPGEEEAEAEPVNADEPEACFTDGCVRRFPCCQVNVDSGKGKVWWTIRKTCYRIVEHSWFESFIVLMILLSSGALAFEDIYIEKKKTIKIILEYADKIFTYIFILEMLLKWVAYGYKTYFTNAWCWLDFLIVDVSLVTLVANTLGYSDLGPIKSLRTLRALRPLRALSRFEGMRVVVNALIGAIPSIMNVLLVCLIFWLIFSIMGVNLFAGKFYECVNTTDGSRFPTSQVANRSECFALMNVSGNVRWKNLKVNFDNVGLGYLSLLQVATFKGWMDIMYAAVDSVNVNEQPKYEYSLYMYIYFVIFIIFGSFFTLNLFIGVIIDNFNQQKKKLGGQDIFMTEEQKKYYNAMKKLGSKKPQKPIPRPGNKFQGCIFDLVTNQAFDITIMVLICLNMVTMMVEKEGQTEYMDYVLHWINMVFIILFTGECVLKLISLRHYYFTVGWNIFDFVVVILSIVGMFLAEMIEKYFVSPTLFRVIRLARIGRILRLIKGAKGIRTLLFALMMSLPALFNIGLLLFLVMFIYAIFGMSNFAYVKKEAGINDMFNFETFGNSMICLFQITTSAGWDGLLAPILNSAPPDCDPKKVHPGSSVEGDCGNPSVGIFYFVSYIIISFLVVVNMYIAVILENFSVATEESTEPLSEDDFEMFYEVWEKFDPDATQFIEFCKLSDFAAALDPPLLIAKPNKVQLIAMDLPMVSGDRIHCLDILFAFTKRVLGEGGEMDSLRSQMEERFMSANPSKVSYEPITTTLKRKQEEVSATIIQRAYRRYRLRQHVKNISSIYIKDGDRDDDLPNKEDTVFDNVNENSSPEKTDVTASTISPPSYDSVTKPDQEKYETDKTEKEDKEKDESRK

In the case of `CC(=O)OC12C=CC(=O)N1c1ccccc1C(=O)O2` (stereo unspecified), the Ki (Acetylcholinesterase) is reported as 4700 nM.
With `Cc1c(C(=O)c2ccc3ncccc3c2)c2cccc3c2n1C(CN1CCOCC1)CO3` (stereo unspecified) the ED50 (Rattus norvegicus) was 3.5 mg/kg.
Compound `COC(=O)NC(C(=O)N1CCCC1c1ncc(-c2ccc3c(c2)-n2ccc4cc(-c5cnc(C6CCCN6C(=O)C(NC(=O)OC)C(C)C)[nH]5)cc(c42)O3)[nH]1)C(C)C` (stereo unspecified) has an EC50 (Hepatitis C virus) of 0.01 nM.
Work on `CCCc1c(O)cc2oc3cccn3c(=O)c2c1O` yielded an MIC (Escherichia coli) of 2 mg/L (≈ 7.71 µM) and an MIC (Staphylococcus aureus) of 2 mg/L (≈ 7.71 µM).
With `CN(C)S(=O)(=O)NC(=O)c1ccc2c(C3CCCCC3)c(-c3ccccc3)n3c2c1OCC3` the IC50 [1] was < 10000 nM.
In the case of `COc1c(O)cccc1C(=O)N1CCC2(CC1)Oc1ccccc1-n1c(C#N)ccc12`, the IC50 [2] is reported as < 2000 nM.
With `COC(=O)NC(C(=O)N1CCCC1c1ncc(-c2ccc3c(c2)OCn2c-3c(F)c3cc(-c4cnc(C5CCCN5C(=O)C(NC(=O)OC)C(C)C)[nH]4)ccc32)[nH]1)C(C)C` (stereo unspecified) the IC50 [3] was 0.001 nM.
In the case of `CCN(CC)C/C=C\c1cc(F)ccc1S(=O)(=O)Nc1ccc2c(c1C(=O)O)OCc1cccn1-2`, the IC50 [4] is reported as < 50 nM.
`CCCc1c(O)cc2oc3cc(Cl)cn3c(=O)c2c1O` showed an MIC (Staphylococcus) of 0.2 to 0.78 mg/L (≈ 0.681 to 2.66 µM) and an IC50 [5] of 20000 nM.
